ChEMBL document CHEMBL3112451, “Synthesis of 2',3',4'-trihydroxyflavone (2-D08), an inhibitor of protein sumoylation” (Bioorg Med Chem Lett, 2014)
Activity calls are given as the source filed them. No cut-off for these calls is given here.

What follows are compounds tested against SUMO E1/E2 (Homo sapiens) (UniProt Q9UBE0+Q9UBT2+P63279) (assay: Inhibition of purified SUMO E1/E2 (unknown origin)-mediated conjugation of His6-SUMO-1 to fluorescent peptide FL-AR at 30 uM after 90 mins by microfluidic electrophoretic mobility shift assay).
Format: protein-complex assay

| inhibition | Compound |
| --- | --- |
| inactive | O=c1cc(-c2ccccc2O)oc2c(O)c(O)ccc12 |
| Active | O=c1cc(-c2ccc(O)c(O)c2O)oc2ccccc12 |
| Active | O=C(/C=C(\O)c1ccccc1O)c1ccc(O)c(O)c1O |
